Experiment: Interfacial tension of lipids against water (measure of polarity)
Type: physicochemical
Details: lipids below 30 mN/m are regarded as polar
Description: Öle und Fette unterscheiden sich unter anderem in ihrer Polarität, welche schwierig zu definieren ist. Es wurde bereits vorgeschlagen, die Grenzflächenspannung gegenüber Wasser als Maß für den Polaritätsindex eines Öls bzw. einer Ölphase anzunehmen. Dabei gilt, daß die Polarität der betreffenden Ölphase um so größer ist, je niedriger die Grenzflächenspannung zwischen dieser Ölphase und Wasser ist. Erfindungsgemäß wird die Grenzflächenspannung als ein mögliches Maß für die Polarität einer gegebenen Ölkomponente angesehen.
Die Grenzflächenspannung ist diejenige Kraft, die an einer gedachten, in der Grenzfläche zwischen zwei Phasen befindlichen Linie der Länge von einem Meter wirkt. Die physikalische Einheit für diese Grenzflächenspannung errechnet sich klassisch nach der Beziehung Kraft/Länge und wird gewöhnlich in mN/m (Millinewton geteilt durch Meter) wiedergegeben. Sie hat positives Vorzeichen, wenn sie das Bestreben hat, die Grenzfläche zu verkleinern. Im umgekehrten Falle hat sie negatives Vorzeichen. Als polar im Sinne der vorliegenden Erfindung werden Lipide angesehen, deren Grenzflächenspannung gegen Wasser weniger als 30 mN/m beträgt.
Unpolare Öle sind beispielsweise solche, welche gewählt werden aus der Gruppe der verzweigten und unverzweigten Kohlenwasserstoffe und -wachse, insbesondere Vaseline (Petrolatum), Paraffinöl, Squalan und Squalen, Polyolefine und hydrogenierte Polyisobutene. […] Tabelle 1

Molecule	Grenzflächenspannungen gegen Wasser
CCCCCCCCCCCCCCCCCCOC(=O)CCCCCC [Tegosoft® SH, Stearyl Heptanoate]	28,7 mN/m
CCCCCCCCOCCCCCCCC [Cetiol® OE, Dicaprylyl Ether]	22,1 mN/m
CCCCCCCC(=O)OCC(COC(=O)CCCCCCC)OC(=O)CCCCCCC [Trivent® OCG, Tricaprylin]	20,2 mN/m
Octyl Palmitate [Cegesoft® C24]	23,1 mN/m
CCCCCCCCOC(=O)CCCCCCCCCCCCCCC(C)C [Prisorine® 2036, Octyl Isostearate]	29,7 mN/m
CCCCCCCCCCCCCCCCCC(=O)OC(C)C [Isopropylstearat, Isopropyl Stearate]	21,9 mN/m
Octyl Stearate [Cetiol® 868]	28,4 mN/m

Reference: patent EP1072247A2, “Cosmetic and dermatological compositions based on o/w emulsions” (Beiersdorf Aktiengesellschaft, priority 1999, dated 2001)
